# Where two headings read alike, the source gives them in different places. Where a SMILES comes first, the peptide text is derived from it. Side-chain parts run from the residue outwards. The star is where a group is joined. Cbz = O=C(OCc1ccccc1)*; Bz = O=C(c1ccccc1)*
# What was measured:
# [1] = target: T1, SIRT3 (Homo sapiens, UniProt Q9NTG7); assay: Fluor de Lys SIRT3 assay; details: for inhibition at 10 µM: read-out: % inhibition at 10 μM SIRT3; for inhibition at 50 µM: read-out: % inhibition at 50 μM SIRT3
# T1 sequence (Q9NTG7 1-399): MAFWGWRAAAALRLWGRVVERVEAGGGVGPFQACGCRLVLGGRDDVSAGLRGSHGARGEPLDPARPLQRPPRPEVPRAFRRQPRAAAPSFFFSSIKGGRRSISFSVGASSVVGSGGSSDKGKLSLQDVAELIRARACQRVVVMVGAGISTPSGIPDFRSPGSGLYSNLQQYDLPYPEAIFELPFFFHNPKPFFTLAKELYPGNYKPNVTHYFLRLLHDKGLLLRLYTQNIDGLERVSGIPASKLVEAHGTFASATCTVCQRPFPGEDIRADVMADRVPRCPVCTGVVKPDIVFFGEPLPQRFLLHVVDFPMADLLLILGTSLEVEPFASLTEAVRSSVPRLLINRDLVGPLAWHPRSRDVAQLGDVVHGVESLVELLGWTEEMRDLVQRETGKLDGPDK
# [2] = target: T2, SIRT2 (Homo sapiens, UniProt Q8IXJ6); assay: Fluor de Lys SIRT2 assay; details: for inhibition at 10 µM: read-out: % inhibition at 10 μM SIRT2; for inhibition at 1 µM: read-out: % inhibition at 1 μM SIRT2
# T2 sequence (Q8IXJ6 1-389): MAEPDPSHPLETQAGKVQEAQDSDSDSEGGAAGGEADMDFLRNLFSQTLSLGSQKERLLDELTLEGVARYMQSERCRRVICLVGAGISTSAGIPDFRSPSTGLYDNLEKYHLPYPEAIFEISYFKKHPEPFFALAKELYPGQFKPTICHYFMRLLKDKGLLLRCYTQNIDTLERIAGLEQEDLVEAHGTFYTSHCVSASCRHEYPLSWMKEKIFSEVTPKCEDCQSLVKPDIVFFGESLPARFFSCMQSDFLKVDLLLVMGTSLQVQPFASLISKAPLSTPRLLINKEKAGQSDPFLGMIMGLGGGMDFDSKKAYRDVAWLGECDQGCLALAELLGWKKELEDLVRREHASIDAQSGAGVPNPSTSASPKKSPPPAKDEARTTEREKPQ
# [3] = target: T3, SIRT5 (Homo sapiens, UniProt Q9NXA8); assay: Fluor de Lys SIRT5 assay; details: for inhibition at 10 µM: read-out: % inhibition at 10 μM SIRT5; for inhibition at 50 µM: read-out: % inhibition at 50 μM SIRT5
# T3 sequence (Q9NXA8 37-310): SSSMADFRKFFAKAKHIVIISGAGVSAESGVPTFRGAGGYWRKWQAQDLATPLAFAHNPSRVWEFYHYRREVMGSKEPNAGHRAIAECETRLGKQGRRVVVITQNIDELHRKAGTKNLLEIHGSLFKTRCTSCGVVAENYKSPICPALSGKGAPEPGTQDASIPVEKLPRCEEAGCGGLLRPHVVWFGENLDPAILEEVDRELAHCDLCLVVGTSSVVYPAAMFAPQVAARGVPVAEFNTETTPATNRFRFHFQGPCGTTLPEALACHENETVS
# [4] = target: T4, SIRT1 (Homo sapiens, UniProt Q96EB6); assay: Fluor de Lys SIRT1 assay; details: for inhibition at 10 µM: read-out: % inhibition at 10 μM SIRT1; for inhibition at 50 µM: read-out: % inhibition at 50 μM SIRT1
# T4 sequence (Q96EB6 1-747): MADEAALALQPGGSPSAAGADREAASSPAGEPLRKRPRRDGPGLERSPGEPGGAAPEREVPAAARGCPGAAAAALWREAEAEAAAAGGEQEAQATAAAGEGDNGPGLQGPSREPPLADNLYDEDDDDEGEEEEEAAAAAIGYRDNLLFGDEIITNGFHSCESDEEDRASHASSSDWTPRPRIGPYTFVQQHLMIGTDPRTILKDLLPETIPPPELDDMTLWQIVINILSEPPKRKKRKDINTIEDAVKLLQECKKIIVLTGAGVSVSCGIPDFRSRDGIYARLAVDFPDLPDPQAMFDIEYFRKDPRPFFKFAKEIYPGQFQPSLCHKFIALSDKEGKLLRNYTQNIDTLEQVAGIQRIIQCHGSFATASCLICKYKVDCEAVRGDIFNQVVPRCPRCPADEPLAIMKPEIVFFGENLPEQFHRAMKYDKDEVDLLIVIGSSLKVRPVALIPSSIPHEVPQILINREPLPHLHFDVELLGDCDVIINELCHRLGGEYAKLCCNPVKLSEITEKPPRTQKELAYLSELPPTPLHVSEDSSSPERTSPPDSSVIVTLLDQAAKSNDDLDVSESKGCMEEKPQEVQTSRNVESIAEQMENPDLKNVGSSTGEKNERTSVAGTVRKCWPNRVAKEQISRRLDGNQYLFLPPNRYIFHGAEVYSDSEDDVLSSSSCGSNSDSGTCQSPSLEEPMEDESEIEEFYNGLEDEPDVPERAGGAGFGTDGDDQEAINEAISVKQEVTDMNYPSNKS
# [5] = target: T4, SIRT1; set-up: purchased Biomol / Enzo Life Sciences (Fluor de Lys kit AK-555) BML-SE239-0100; details: cited from earlier work
# [6] = system: MDA-MB-231 cells; assay: Cell growth assay (AlamarBlue), MDA-MB-231; assay type: cell-based, human; details: Homo sapiens, 72 h of treatment
# [7] = target: T1, SIRT3; set-up: purchased Biomol / Enzo Life Sciences (Fluor de Lys kit AK-557) BML-SE270-0500; details: cited from earlier work
inhibition at 10 µM [1] [%],inhibition at 50 µM [1] [%],inhibition at 10 µM [2] [%],inhibition at 10 µM [3] [%],inhibition at 50 µM [3] [%],inhibition at 10 µM [4] [%],inhibition at 50 µM [4] [%],inhibition at 1 µM [2] [%],IC50 [2] [µM],"GI50 ([6]; MDA-MB-231, 72 h) [µM]","reduction of the SIRT2 inhibitory activity ([2]; removal of the phenoxyethyl fragment, relative to 26) [%]",SIRT2 inhibition (in words) [2],inhibition at 50 µM ([2]; read-out: % inhibition at 50 μM SIRT2) [%],IC50 [1] [µM],inhibition at 1 µM ([1]; read-out: % inhibition at 1 μM SIRT3) [%],IC50 [4] [µM],inhibition at 1 µM ([4]; read-out: % inhibition at 1 μM SIRT1) [%],Compound,IC50 [5] [µM],GI50 [6] [µM],IC50 [7] [µM]
1 ± 2.6,12,90 ± 1.5,10 ± 2.6,12,3 ± 3.6,14,32 ± 4.1,1.74 ± 0.26,> 30,,,,,,,,"NC(=O)c1ccccc1Nc1cccc(OCCc2ccccc2)c1 [Compound 6, 3′-phenethyloxy-2-anilinobenzamide, reference compound]",> 300,,> 300
,,45 ± 2.9,0,3,0.9 ± 0.62,14,,,,,,,,,,,"N#C/C(=C\c1ccc(-c2cc(Cl)ccc2Cl)o1)C(=O)Nc1cccc2ncccc12 [Compound 7, AGK2, reference compound]",,,
0,0,31 ± 0.42,0,0,6.2 ± 0.85,25,,,,,,,,,,,"O=C(Nc1cccc([N+](=O)[O-])c1)c1cccc(S(=O)(=O)N2CCCCCC2)c1 [Compound 8, AK-1, reference compound]",,,
10 ± 0.95,13,85 ± 0.47,0,4,10 ± 1.9,18,19 ± 0.63,3.6 ± 0.03,,,,,,,,,NC(=O)CNC(=O)c1ccccc1Nc1cccc(OCCc2ccccc2)c1 [Compound 17],,,
0,3,81 ± 0.43,0,3,2 ± 1,12,,4.04 ± 0.65,,,,,,,,,CCCNC(=O)CNC(=O)c1ccccc1Nc1cccc(OCCc2ccccc2)c1 [Compound 18],,,
3 ± 3.2,2,69 ± 2.2,6 ± 3.2,6,4.5 ± 3.4,4,,6.71 ± 0.42,,,,,,,,,CCCCCNC(=O)CNC(=O)c1ccccc1Nc1cccc(OCCc2ccccc2)c1 [Compound 19],,,
14 ± 4.9,56,99 ± 0.15,0,6,16 ± 0.1,25,74 ± 2,0.37 ± 0.03,10.8,,,,,,,,C[C@H](NC(=O)[C@H](CCCCNC(=O)CNC(=O)c1ccccc1Nc1cccc(OCCc2ccccc2)c1)NC(=O)OCc1ccccc1)C(N)=O [Compound 26],,,
9 ± 2.2,16,80 ± 0.12,0,3,24 ± 2.1,68,,1.84 ± 0.21,,~20,,,,,,,C[C@H](NC(=O)[C@H](CCCCNC(=O)CNC(=O)c1ccccc1Nc1ccccc1)NC(=O)OCc1ccccc1)C(N)=O [Compound 27],,,
1 ± 1.8,0,8 ± 3.3,0,0,3.5 ± 1,1,,,,,no SIRT2 inhibition,18,,,,,C[C@H](NC(=O)[C@H](CCCCNC(=O)CNC(=O)c1ccccc1)NC(=O)OCc1ccccc1)C(N)=O [Compound 28] (Cbz-Lys([Gly-Bz])-Ala-NH2),,,
0,0,54 ± 1.5,1 ± 2.2,3,0,10,,8.47 ± 0.3,,,,,,,,,CCCNC(=S)CNC(=O)c1ccccc1Nc1cccc(OCCc2ccccc2)c1 [Compound 41],,,
0,2,40 ± 3.4,0,3,0,11,,19.3 ± 3.1,,,,,,,,,CCCCCNC(=S)CNC(=O)c1ccccc1Nc1cccc(OCCc2ccccc2)c1 [Compound 42],,,
65 ± 0.23,,99 ± 3.2,3 ± 3.9,6,97 ± 0.04,,56 ± 1.9,0.59 ± 0.13,,,,,4.39 ± 0.28,19 ± 0.78,0.18 ± 0.013,83 ± 0.4,"CC(=S)NCCCC[C@H](NC(=O)OCc1ccccc1)C(=O)N[C@@H](C)C(N)=O [UKU 10363, reference compound]",,,

Compound,inhibition at 10 µM [1] [%],inhibition at 50 µM [1] [%],inhibition at 10 µM [2] [%],inhibition at 10 µM [3] [%],inhibition at 50 µM [3] [%],inhibition at 10 µM [4] [%],inhibition at 50 µM [4] [%],inhibition at 1 µM [2] [%],IC50 [2] [µM],"GI50 ([6]; MDA-MB-231, 72 h) [µM]","reduction of the SIRT2 inhibitory activity ([2]; removal of the phenoxyethyl fragment, relative to 26) [%]",SIRT2 inhibition (in words) [2],inhibition at 50 µM ([2]; read-out: % inhibition at 50 μM SIRT2) [%],IC50 [1] [µM],inhibition at 1 µM ([1]; read-out: % inhibition at 1 μM SIRT3) [%],IC50 [4] [µM],inhibition at 1 µM ([4]; read-out: % inhibition at 1 μM SIRT1) [%],IC50 [5] [µM],GI50 [6] [µM],IC50 [7] [µM]
"CN(C)CCCCC(=O)Nc1ccc(NC(=S)NC(=O)c2ccc(C(C)(C)C)cc2)cc1 [Compound 3, tenovin-6, reference compound]",0,9,45 ± 2.5,0,2,0.9 ± 0.17,64,,,,,,,,,,,,,
"Cc1cc(C)nc(SCC(=O)Nc2ncc(Cc3cccc4ccccc34)s2)n1 [Compound 5, SirReal2, reference compound]",5 ± 0.6,1,98 ± 3.1,3 ± 1.5,1,3 ± 0.65,6,80 ± 1.5,,,,,,,,,,> 100,9.46,> 100
"NC(=O)C1CCCc2c1[nH]c1ccc(Cl)cc21 (stereo not shown) [Compound 9, EX-527, reference compound]",,,79 ± 1.3,0,0,97 ± 0.13,,,,> 30,,,,,,,,,,

# From article PMC5628579, “Potent mechanism-based sirtuin-2-selective inhibition by an in situ-generated occupant of the substrate-binding site, “selectivity pocket” and NAD^+-binding site” (Chemical Science, 2017)
